Measured values as given in patent US20230277553A1, “THERAPEUTIC COMPOSITION OF CURE-PRO COMPOUNDS FOR TARGETED DEGRADATION OF BET DOMAIN PROTEINS, AND METHODS OF MAKING AND USAGE” (CORNELL UNIVERSITY, priority 2020, published 2023).
“Also recorded” adds a separate entry of the source.

Molecular target: BRD4 (Homo sapiens, UniProt O60885)
Test: CURE-PRO-mediated BRD4 degradation with VHL ligands, WES (ProteinSimple), MCF7 cells
Type: cell-based
Parameters: endogenous in cells
Conditions: MCF7, 10 μM each
Description: All cell lines were purchased from ATCC or DSMZ and grown at 37° C. with 5% CO2. Human HeLa cells were cultured in complete growth medium (Dulbecco's modified Eagle's medium (DMEM) supplemented with 10% FBS); MCF7 cells were cultured in complete growth medium (Dulbecco's modified Eagle's medium (DMEM) supplemented with 10% FBS and 0.01 mg/ml human recombinant insulin (Sigma Aldrich); Namalwa and MOLM-13 cells were cultured in complete growth medium (RPMI 1640 medium supplemented with 10% FBS); MV-4-11 were cultured in complete growth medium (Iscove's Modified Dulbecco's medium, supplemented with 10% FBS); HCT116 cells were cultured in complete growth medium (McCoy's 5a Medium supplemented with 10% FBS). For cellular degradation of BRD4 studies, cells were seeded in a 12-well plate at 70-80% confluency, allowed to attach overnight, and incubated with the indicated compounds for the indicated time. When indicated, a 15-minute pretreatment with 10 μM pomalidomide, 10 μM VHL298, 10 μM Nutlin3a, 1 μM MG-132 or 1 μM Carfilzomib was performed before the addition of CURE-PROs. For washout studies, after CURE-PRO treatment, media was aspirated and incubated with complete medium for the indicated time before lysis.
WES Simple analysis was performed on WES system (ProteinSimple-Biotechne) according to the manufacturer's instructions. Total protein concentrations of cell lysates were determined by the Pierce BCA kit (Thermo Fisher). 3 μL of 0.3 μg/μL of the protein lysate was loaded onto a 12- to 230-kDa WES assay plate (ProteinSimple) where 300 nL sample was withdrawn through a capillary, subjected to electrophoretic separation of proteins by size, and followed by the simultaneous, HRP-based detection of proteins using the Anti-Rabbit Detection Module (Proteinsimple: #DM-001). The electropherograms were checked then the automatic peak detection was manually corrected if it was required.
MCF7 cells (3×10^6) were treated for 4-24 hours continually (FIG. 72), or treated for 4h, washed and incubated for a further 4-24 h with the compounds solubilized in DMSO. Compounds were added at 10 μM each. Cells were washed, lysed, and clarified by centrifugation. The total protein concentration was quantified by the BCA method (ThermoFisher Sciences). Standardized protein samples were electrophoresed and imaged as described in the WES Proteinsimple section above. FIG. 69 depicts the CURE-PRO-mediated BRD4 degradation for the BRD-E50 monomer, and VHL ligand, 8305.
MCF7 cells (3×10^6) were treated for 24 hours with the compounds solubilized in DMSO. CURE-PRO monomers were added at 10 μM each and the proteasomal inhibitors at 1 μM. Standardized protein samples were electrophoresed and imaged as described in the WES Proteinsimple section above. FIGS. 73 and 75 depicts the dependence of the proteasome for CURE-PRO-mediated BRD4 degradation.
MCF7 cells (3×10^6) were treated for 24 hours with the compounds solubilized in DMSO. CURE-PRO monomers were added at 10 μM. FIG. 74 depicts the CURE-PRO-mediated BRD4 degradation for the BRD-E50 monomer, and VHL ligand, 8305 combined in a 1:1 ratio after 24 h.

CCNC(=O)C[C@@H]1N=C(c2ccc(Cl)cc2)c2cc(OCCCCC(=O)Nc3cccc(B(O)O)c3)ccc2-n2c(C)nnc21 [BRD-E20, (3-(5-(((4S)-6-(4-chlorophenyl)-4-(2-(ethylamino)-2-oxoethyl)-1-methyl-4H-benzo[f][1,2,4]triazolo[4,3-a][1,4]diazepin-8-yl)oxy)pentanamido)phenyl)boronic acid]
BRD4 degradation, with VHL ligand 8304 (WES): failed to induce BRD4 degradation | BRD4 degradation, with VHL ligand 8305 (WES) (1:1 with 8305, 4-24 h, with washout where stated): caused BRD4 degradation; also recorded: marked BRD4 degradation
